Results published in patent publication US20210047622A1, “METHOD FOR OBTAINING AN ANIMAL MODEL FROM CONDITIONALLY REPROGRAMMED CELLS AND USE OF THE ANIMAL MODEL FOR SCREEING ANTI-TUMOR DRUGS” (Shanghai Lide Biotech Co., Ltd., priority 2018, published 2021).
Values joined by “and” are separate entries in the source; they are usually repeats but may differ in a detail not shown here. Equal entries are not always repeated.

Assays:
Assay type in all cases: in vivo, human
[1] = test system: MDX095 Mini-PDX models (conditional reprogramming cells from a peritoneal malignant tnesoshelioma patient); assay: Anti-tumor efficacy in MDX095 Mini-PDX model; conditions: Mini-PDX devices s.c. in nude mice, CTG cell viability day 7, i.p., doses and schedules per Table 3
Source text: Conditional reprogramming cells from […]123 were collected separately. […] The inoculation day was defined as day 0.

[2] = test system: MDX123 Mini-PDX models (conditional reprogramming cells from a colonrectal cancer patient); assay: Anti-tumor efficacy in MDX123 Mini-PDX model; conditions: Mini-PDX devices s.c. in nude mice, CTG cell viability day 7, i.p., doses and schedules per Table 5
Source text: (§1) The inoculation day was defined as day 0.

[3] = test system: MDX133 Mini-PDX models (conditional reprogramming cells from a gastric cancer patient); assay: Anti-tumor efficacy in MDX133 Mini-PDX model; conditions: Mini-PDX devices s.c. in nude mice, CTG cell viability day 7, doses, routes and schedules per Table 6
Source text: (§2) Conditional reprogramming cells from MDX133, MDX154, MDX164, MDX165, MDX168, MDX169, MDX174, MDX186, MDX189, MDX203 were collected separately. MDX133 originated from a gastric cancer patient, MDX154 model originated from a gallbladder carcinoma patient, MDX164 model originated from a glioblastoma patient, MDX165 model originated from a glioblastoma patient, MDX168 model originated from a gallbladder carcinoma patient, MDX169 model originated from a lung cancer patient, MDX174 model originated from a lung cancer patient, MDX186 model originated from a pancreatic cancer patient, MDX189 model originated from a esophagus cancer patient, MDX203 model originated from a gallbladder carcinoma patient.
(§3) Wash the tumor tissue sample with buffer solution and remove away non-tumor tissue and necrotic tumor tissue in biosafety cabinet. Cut the tumor into 1˜3 mm3 fragments, suspend pellet with 1× collagenase solution and incubate in 37° C. for 1-2 hours. Collect single cells through 70 uM strainer, count cell numbers to calculate tumor cell concentration (See 9. Tumor cell concentration obtained from surgery and biopsy/needle biopsy). Cultivate the cells with conditional reprogramming medium, after tumor cells proliferation, and harvest the conditional reprogramming cells.
(§4) Suspend tumor tissues obtained from biopsy/needle biopsy in 1× collagenase solution and incubate in 37° C. for 1-2 hours. Collect single cells through 70 uM strainer, count cell numbers to calculate tumor cell concentration (See 9. Tumor cell concentration obtained from surgery and biopsy/needle biopsy). Cultivate the cells with conditional reprogramming medium, after tumor cells proliferation, and harvest the conditional reprogramming cells.
(§5) The cells suspension was filled into Mini-PDX device and the devices were inoculated subcutaneously into both flanks of Nu/Nu-nude mice, to establish the Mini-PDX model. The inoculation day was defined as day 0. Mice were randomized in groups according to the bodyweights and the treatments were initiated at day 0.
(§6) • 6.4.1 Body weight were measured every day, the treatment periods of these studies were 7 days, at the termination, all mice were euthanized and the Mini-PDX devices were removed for CTG (cell viability) assay. Tumor relative proliferation rate (%) is the indication of the anti-tumor activity. • 6.4.2 When VCd7−Vd0>0, Tumor relative proliferation rate (%)=(VTd7−Vd0)/(VCd7−Vd0)×100%; When VCd7−Vd0<0, Tumor relative proliferation rate (%)=VTd7/VCd7×100% (VTd7: the cell viability on day 7 of treatment group; VCd7: the cell viability on day 7 of control group; Vdo: the cell viability on day 0).

[4] = test system: MDX154 Mini-PDX models (conditional reprogramming cells from a gallbladder carcinoma patient); assay: Anti-tumor efficacy in MDX154 Mini-PDX model; conditions: Mini-PDX devices s.c. in nude mice, CTG cell viability day 7, doses, routes and schedules per Table 7
Source text: as §1

[5] = test system: MDX168 Mini-PDX models (conditional reprogramming cells from a gallbladder carcinoma patient); assay: Anti-tumor efficacy in MDX168 Mini-PDX model; conditions: Mini-PDX devices s.c. in nude mice, CTG cell viability day 7, doses, routes and schedules per Table 10
Source text: as §2, §3, §4, §5, §6

[6] = test system: MDX186 Mini-PDX models (conditional reprogramming cells from a pancreatic cancer patient); assay: Anti-tumor efficacy in MDX186 Mini-PDX model; conditions: Mini-PDX devices s.c. in nude mice, CTG cell viability day 7, doses, routes and schedules per Table 13
Source text: as §2, §3, §4, §5, §6

[7] = test system: MDX203 Mini-PDX models (conditional reprogramming cells from a gallbladder carcinoma patient); assay: Anti-tumor efficacy in MDX203 Mini-PDX model; conditions: Mini-PDX devices s.c. in nude mice, CTG cell viability day 7, doses, routes and schedules per Table 15
Source text: as §2, §3, §4, §5, §6

[8] = test system: MDX164 Mini-PDX models (conditional reprogramming cells from a glioblastoma patient); assay: Anti-tumor efficacy in MDX164 Mini-PDX model; conditions: Mini-PDX devices s.c. in nude mice, CTG cell viability day 7, 50 mg/kg p.o. qd*5
Source text: as §1

[9] = test system: MDX165 Mini-PDX models (conditional reprogramming cells from a glioblastoma patient); assay: Anti-tumor efficacy in MDX165 Mini-PDX model; conditions: Mini-PDX devices s.c. in nude mice, CTG cell viability day 7, 50 mg/kg p.o. qd*5
Source text: as §1

Molecule	T/C % (Tumor relative proliferation rate) [1] [%]	T/C % (Tumor relative proliferation rate) [2]	T/C % (Tumor relative proliferation rate) [3] [%]	T/C % (Tumor relative proliferation rate) [4] [%]	T/C % (Tumor relative proliferation rate) [5] [%]	T/C % (Tumor relative proliferation rate) [6] [%]	T/C % (Tumor relative proliferation rate) [7] [%]	also measured
O=c1[nH]cc(F)c(=O)[nH]1 [5-Fu]	80	75%	103	111	146	90	83	
N.N.[Cl][Pt][Cl] [Cisplatin]	128							
COc1cccc2c1C(=O)c1c(O)c3c(c(O)c1C2=O)C[C@@](O)(C(=O)CO)C[C@@H]3O[C@H]1C[C@H](N)[C@@H](O)[C@H](C)O1 [Epirubicin]	120							
COc1cc([C@@H]2c3cc4c(cc3[C@@H](O[C@@H]3O[C@@H]5CO[C@@H](C)O[C@H]5[C@H](O)[C@H]3O)[C@H]3COC(=O)[C@H]23)OCO4)cc(OC)c1O [Etoposide]	109							
Nc1ccn([C@@H]2O[C@H](CO)[C@@H](O)C2(F)F)c(=O)n1 [Gemcitabine]				100	53	83	77	
CCc1c2c(nc3ccc(OC(=O)N4CCC(N5CCCCC5)CC4)cc13)-c1cc3c(c(=O)n1C2)COC(=O)[C@]3(O)CC [Irinotecan]		68%	72	227	12	5	48	
O=C1[O][Pt]2([NH][C@@H]3CCCC[C@H]3[NH]2)[O]C1=O [Oxaliplatin]		61%	89	174	75	47	43	
CC(=O)O[C@H]1C(=O)[C@@]2(C)[C@H]([C@H](OC(=O)c3ccccc3)[C@]3(O)C[C@H](OC(=O)[C@H](O)[C@@H](NC(=O)c4ccccc4)c4ccccc4)C(C)=C1C3(C)C)[C@]1(OC(C)=O)CO[C@@H]1C[C@@H]2O [Paclitaxel]	79		52					
Cc1nc2ccc(CN(C)c3ccc(C(=O)N[C@@H](CCC(=O)O)C(=O)O)s3)cc2c(=O)[nH]1 [Raltitrexed]		92%						
Cn1nnc2c(C(N)=O)ncn2c1=O [Temozolomide]								T/C % (Tumor relative proliferation rate) [8]: 102%; T/C % (Tumor relative proliferation rate) [9]: 29%
Bevazulimab: Test drug of the MDX123 groups, printed Bevacizumab in Table 5		76% and 101%						
